# Laboratory results taken from patent publication US20130059855A1, “CRYSTAL OF DI(ARYLAMINO)ARYL COMPOUND” (ASTELLAS PHARMA INC., priority 2010, published 2013).
# Experiments:
# [1] = Assessment of filterability (constant pressure filtration test, Ruth plot); type: physicochemical; details: for Filtration Constant B / Cake Average Specific Resistance αm: crystallization slurry, applied pressure 100 kPa; for Filtration Constant B: from inclination of Ruth plot; for Cake Average Specific Resistance αm: constant pressure filtration
# Description: Slurries of A02-type crystal prepared by a method similar to that of the Variation of Reference Example 2 and A04-type crystal prepared by a method similar to that of Example 2 were used to perform constant pressure filteration test, and the cake-average filteration specific resistance αm was obtained by constant pressure filteration formula of Ruth shown in formula (1) to assess filterability. Note that the slurry used in the present test is the crystallization slurry immediately before the crystals are collected by filtration in the preparation of the crystals.
# The calculation of cake average specific resistance αm [m/kg] was performed by plotting (Ruth plot) μ [m^3/m^2] and Δθ/Δν [sec/m], obtaining the filtration constant B from the inclination of the obtained line, and inserting the parameters shown in the filtration condition row of Table 1 to formula (2).
# [2] = Solubility in 50% acetone aqueous solution; type: physicochemical
# Experimental: (§1) The solubility of A02-type crystal, A03-type crystal and A04-type crystal was measured for 50% acetone aqueous solution. The solubility is lowest for A04-type crystal at all temperatures.
# [3] = Long term stability test (storage stability); type: physicochemical; details: powder X-ray diffraction, DSC, HPLC
# Experimental: A04-type crystal samples were separately stored for 3 months under (1) 40° C./75% R.H., (2) 60° C./uncontrolled humidity, and (3) 25° C./uncontrolled humidity/D65 lamp (1000 lux) illumination (2 months under condition (3)), and the change in the crystal form of the samples before and after storage was measured by powder X-ray diffraction and DSC analysis and the change in the purity of the same was confirmed by HPLC measurement (using HPLC Condition 1 or HPLC Condition 2 shown below as the measurement conditions).
# [4] = Hygroscopicity Test B (water absorption/dehydration behavior); type: physicochemical; details: 25° C., humidity range of 5-95% R.H.
# Experimental: The water absorption/dehydration behavior of A04-type crystal was assessed using water balance measuring apparatus SGA-X100 (VTI) under the following conditions. Temperature: 25° C., measurement range: 5-95% R.H., measurement interval: 5%.
# Hygroscopicity Test A = type: physicochemical; details: relative humidity of 93% (KNO3 saturated aqueous solution), 25° C., 7 days
# Experimental: About 0.5 g of A04-type crystal was weighed into an (open) weighing bottle with a known mass to obtain a precise mass, then the weighing bottle was placed in a desiccator adjusted to a relative humidity of 93% by KNO3 saturated aqueous solution and stored at 25° C. for 7 days before measuring the change in mass.
# [5] = Assessment of the stability level (solubility, transformation, DSC); type: physicochemical; details: all temperature range; A01- to A05-type crystals compared
# Experimental: as §1
# (§2) A05-type crystal was subjected to slurry agitation under room temperature and its solvent-mediated transformation was studied.
# The schematic diagram showing the interrelation of the stability levels of the crystals based on the above result is presented as FIG. 4.
# EML4-ALK fusion protein = details: reported in Patent Document 1 (WO 2009/008371); cited from earlier work
# mutant EGFR protein = details: reported in Patent Document 1 (WO 2009/008371); cited from earlier work
# [6] = Study of solvent-mediated transformation; type: physicochemical; details: slurry agitation in methyl ethyl ketone under room temperature
# Description: as §2
Structure (SMILES),Filtration Constant B [1],Cake Average Specific Resistance αm [1],Solubility ([2]; 25° C.),Solubility ([2]; 40° C.),Solubility ([2]; 55° C.),other results
"COc1cc(N2CCC(N3CCN(C)CC3)CC2)ccc1Nc1ncnc(Nc2ccccc2S(=O)(=O)C(C)C)n1 [Compound A, N-{2-methoxy-4-[4-(4-methylpiperazin-1-yl)piperidin-1-yl]phenyl}-N′-[2-(propane-2-sulfonyl)phenyl]-1,3,5-triazine-2,4-diamine]",–,–,–,–,–,inhibitory activity against the kinase activity of EML4-ALK fusion protein (EML4-ALK fusion protein): good inhibitory activity; inhibitory activity against the kinase activity of mutant EGFR protein (mutant EGFR protein): good inhibitory activity
"COc1cc(N2CCC(N3CCN(C)CC3)CC2)ccc1Nc1ncnc(Nc2ccccc2S(=O)(=O)C(C)C)n1 [A05-type crystal, N-{2-methoxy-4-[4-(4-methylpiperazin-1-yl)piperidin-1-yl]phenyl}-N′-[2-(propane-2-sulfonyl)phenyl]-1,3,5-triazine-2,4-diamine]",–,–,–,–,–,solvent-mediated transformation [6]: transformed to A04-type crystal after 1 minute of agitation

# More lines, main results first:
Filtration Constant B [1],Cake Average Specific Resistance αm [1],Solubility ([2]; 25° C.),Solubility ([2]; 40° C.),Solubility ([2]; 55° C.),Structure (SMILES),other results
81406,1.31×10^11 m/kg,13.6 mg/mL,17.7 mg/mL,30.8 mg/mL,"COc1cc(N2CCC(N3CCN(C)CC3)CC2)ccc1Nc1ncnc(Nc2ccccc2S(=O)(=O)C(C)C)n1 [A02-type crystal, N-{2-methoxy-4-[4-(4-methylpiperazin-1-yl)piperidin-1-yl]phenyl}-N′-[2-(propane-2-sulfonyl)phenyl]-1,3,5-triazine-2,4-diamine]","cake average specific resistance relative to A04-type crystal ([1]; ratio of A02-type crystal to A04-type crystal, filtration time proportional): about 155 times"
2201.7,8.43×10^8 m/kg,4.5 mg/mL,8.0 mg/mL,13.0 mg/mL,"COc1cc(N2CCC(N3CCN(C)CC3)CC2)ccc1Nc1ncnc(Nc2ccccc2S(=O)(=O)C(C)C)n1 [A04-type crystal, N-{2-methoxy-4-[4-(4-methylpiperazin-1-yl)piperidin-1-yl]phenyl}-N′-[2-(propane-2-sulfonyl)phenyl]-1,3,5-triazine-2,4-diamine]","change in the crystal form or the purity after storage ([3]; 25° C./uncontrolled humidity/D65 lamp (1000 lux) illumination, 2 months): no significant change; change in the crystal form or the purity after storage ([3]; 40° C./75% R.H., 3 months): no significant change; change in the crystal form or the purity after storage ([3]; 60° C./uncontrolled humidity, 3 months): no significant change; weight change through water absorption and dehydration [4]: lower than 0.1%; change in mass (hygroscopicity) (Hygroscopicity Test A): no significant change in mass; thermodynamic stability level among crystal forms of Compound A [5]: most stable crystal"
–,–,5.3 mg/mL,8.5 mg/mL,16.1 mg/mL,"COc1cc(N2CCC(N3CCN(C)CC3)CC2)ccc1Nc1ncnc(Nc2ccccc2S(=O)(=O)C(C)C)n1 [A03-type crystal, N-{2-methoxy-4-[4-(4-methylpiperazin-1-yl)piperidin-1-yl]phenyl}-N′-[2-(propane-2-sulfonyl)phenyl]-1,3,5-triazine-2,4-diamine]",–
